# Assay results reported in patent US8911342B2, “Apparatus and method for pulsed electrical field treatment” (Re5 ApS, priority 2009, dated 2014).
# Tested on: Human neural cells line from sympatic ganglia - SHSY-5Y
# Conditions: sertraline 10 μM 24 hours, then PEMF 2 hrs at 50 or 55 Hz, vs control cells, PCR array
structure (smiles),measurement,value
"CN[C@H]1CC[C@@H](c2ccc(Cl)c(Cl)c2)c2ccccc21 [sertraline, (1S,4S)-4-(3,4-dichlorophenyl)-N-methyl-1,2,3,4-tetrahydronaphthalen-1-amine]","Fold increase in mRNA, Bone morphonogenic Protein 1 (BMP1)",4 fold
same,"Fold increase in mRNA, Bone morphonogenic Protein 5 (BMP5)",8 fold
same,"Fold increase in mRNA, IL-17B",8 fold
same,"Fold increase in mRNA, IL-18",4 fold
same,"Fold increase in mRNA, IL-20",4 fold
same,"Fold increase in mRNA, IL-21",4 fold
same,"Fold increase in mRNA, Il-8",8 fold
same,"Fold increase in mRNA, Interleukin 10 (IL-10)",1 fold
same,"Fold increase in mRNA, TNF SF10",8 fold
same,"Fold increase in mRNA, TNF SF11",2 fold
same,"Fold increase in mRNA, TNFR SF11",8 fold
same,"Fold increase in mRNA, Transforming growth factor beta 3 (TGFB3)",5 fold
same,"Fold increase in mRNA, Tumor necrosis factor (TNF)",8 fold
